Structures can show the parent of a compound that is named as a salt.
What was measured:
[1] = system: advanced refractory solid tumors; test: Tumor response evaluation in patients with advanced refractory solid tumors; type: in vivo, human; settings: six patients enrolled
[2] = Metabolite radio-profiling (LC-RAM, LC-MS/MS) of plasma, urine and feces; type: in vivo, human
Description: An equal volume of 2, 4, 8, 12, 24, and 96 h plasma sample was pooled by time-point across subject 03 ~ 06, to give six pooled plasma samples for metabolite profiling. An appropriate volume (3x, v/v) of acetonitrile was added to a portion of the pooled plasma sample, followed by vortexing ca. 2 min. After storage in a refrigerator for ca. 30 min, the mixture was centrifuged at ca. 10000 g at 4 °C for 10 min. The supernatant was then separated from the PES, which was suspended with water, followed by addition of methanol (2x, v/v) twice. The three extracts were combined and evaporated to dryness under a nitrogen stream by an N-Evap evaporator at room temperature. The residues were reconstituted with an appropriate volume of methanol:water (1:1, v/v) and centrifuged at ca. 10000 g at 4 ℃ for 10 min. The supernatant was subjected to HPLC radio-profiling.
Four pooled human urine samples (subject 03 ~ 06) were pooled from 0 to 432 h based on equal volume ratios from the individual patients across time intervals. In addition, three pooled urine samples (0–48, 48–120 and 360–432 h) (subjects 03–06) were prepared by pooling human urine samples across subjects and time points. Portion of the pooled urine sample was evaporated to a small volume under a nitrogen stream and extracted with methanol (3x, v/v) followed by centrifuged at ca. 10000 g at 4 ℃ for 10 min. The supernatant was reconstituted with an appropriate volume of methanol:water (1:1, v/v) and centrifuged at ca. 10000 g at 4 ℃ for 10 min. The supernatant was subjected to HPLC radio-profiling.
Four human fecal samples (0–432 h) were prepared by pooling feces from individual subjects (Subjects 03–06). In addition, three pooled human fecal samples (0–48, 48–120 and 360–432 h) were prepared by pooling feces samples across subjects and time points. The pooled fecal homogenate was extracted with methanol (3x, v/v) and the mixture was vortexed, and centrifuged at ca. 10000 g at 4 ℃ for 10 min. The supernatant was then separated from the PES, which was suspended with water, followed by addition of methanol twice. The three extracts were combined and evaporated to dryness under a nitrogen stream by an N-Evap evaporator at room temperature. The residues were reconstituted with an appropriate volume of methanol:water (1:1, v/v) and centrifuged at ca. 10000 g at 4 ℃ for 10 min prior to analysis.
HPLC coupled with radioactivity monitor (LC-RAM) was used to isolate and quantitate [^14C] anlotinib and its metabolites. The plasma and fecal extracts as well as urine supernatants were subjected to HPLC separation, fractionation, and eluent collection. The radioactivity in each fraction was monitored by solid scintillation counting using a Packard TopCount® NXT™ Microplate Counter. The radio-profiles were then reconstructed using ARC® Convert software. The peak area of each radioactivity peak/region was integrated using ARC® Evaluation software, and the percent distribution of each peak/region was calculated (%TRA for plasma or %Dose for urine and feces).
Metabolites were characterized and/or identified by LC–MS/MS in conjunction with on-line radioactivity detection. Structures of metabolites were proposed by interpretation of the mass spectral fragmentation pattern, as well as chromatographic behaviors and metabolic pathways.

[3] = system: human cytochrome P450 3A4; set-up: method as in PMID 29441353; settings: in vitro; read-out: Half maximum inhibitory concentration; cited from earlier work
[4] = Total radioactivity pharmacokinetics in plasma after single oral [14C]-anlotinib hydrochloride; type: in vivo, human
Description: The blood samples were collected before orally administration and 0.5, 2, 4, 8, 10, 12, 24, 48, 72, 96, 120, 144, 168, 192, 216, 240, 288, 312, 384, 408, 456, 480, 552, 840, 888, and 1416 h after orally administration. An aliquot of the blood samples was mixed gently and chilled immediately under − 20 °C; the remainder was centrifuged at 1660 g for 10 min at 4 °C to separate the plasma samples.
(§1) Levels of radioactivity in plasma, urine, and extracts of fecal samples were determined by mixing individual samples with 5 mL scintillation cocktail and determined by counting directly in a liquid scintillation counter (LSC). Blood, fecal homogenates, and post extraction solids were combusted with OX-501 Biological Sample Oxidizer, the ^14CO2 formed were trapped directly in 15 mL scintillation cocktail, followed by counting with LSC. Samples were assayed with a liquid scintillation counter for 5 min.
The peak concentration (Cmax) and the time to Cmax (Tmax) were obtained through the plasma concentration directly. The area under concentration–time curve up to the last measured time point (AUC0−t) was calculated by the trapezoidal rule. The k was estimated by linear regression analysis of the terminal portion of the log concentration–time data, and the elimination half-life (t1/2) was calculated through the coefficient 0.693/k. The renal clearance (CLR) was calculated by dividing the cumulative amount excreted into urine (Cum. Ae−U) by plasma AUC0−t.

[5] = set-up: method as in PMID 29620050; settings: rats and dogs; cited from earlier work
[6] = Mass balance: excretion of total radioactivity in urine and feces; type: in vivo, human
Description: The urine samples were collected before orally administration and 0–2648 h after orally administration. […] In the process of collecting urine and feces samples of the six patients, because of the excretion particularity of the drug, the samples were not collected continuously every day, but once a week or every 10 days. In this case, the calculation of excretion rate during non-collected days was the multiplication of the first-day excretion rate after non-collected days by the number of non-collected days.
as §1

[7] = six male patients, single oral 14.15 mg/80 or 120 µCi
[8] = suspension here vs capsule in the previous study

Drug-related component in feces, % of the dose ([2]; feces, pooled 0–432 h, subjects 03–06, single oral 14.15 mg/120 μCi): 5.64 % of the dose | Drug-related component in human plasma (radio-profile) ([2]; pooled plasma 2–96 h, subjects 03–06, listed as parent drug): major drug-related component | Drug-related component in urine, % of the dose ([2]; urine, pooled 0–432 h, subjects 03–06, single oral 14.15 mg/120 μCi): 0.73 % of the dose | AUC0-last (AUClast) of total radioactivity in plasma, average [4, 7]: 4071 h∙ng Eq./g | AUC0-∞ of total radioactivity in plasma, average [4, 7]: 13,555 h∙ng Eq./g | Cmax of total radioactivity (TRA) in plasma, average [4, 7]: 18.80 ng Eq./g | Tmax of total radioactivity (TRA) in plasma, average [4, 7]: 4.42 h | AUC relative to the published phase I study [4, 8]: twice | Cmax relative to the published phase I study [4, 8]: twice | Recovery of radioactivity in feces, average ([6]; 0 ~ 2648 h, six patients): 48.52 % dose | Recovery of radioactivity in urine, average ([6]; 0 ~ 2648 h, six patients): 13.51 % dose | Total recovery rate of radioactivity (urine and feces), average ([6]; 0 ~ 2648 h, six patients): 62.03 % dose | Feces (% dose) ([6]; Subject 01, 0 ~ 2648 h): 50.73 % dose | Total recovery rate (% dose) ([6]; Subject 01, 0 ~ 2648 h): 66.24 % dose | Urine (% dose) ([6]; Subject 01, 0 ~ 2648 h): 15.51 % dose | Feces (% dose) ([6]; Subject 02, 0 ~ 2648 h): 42.51 % dose | Total recovery rate (% dose) ([6]; Subject 02, 0 ~ 2648 h): 60.96 % dose | Urine (% dose) ([6]; Subject 02, 0 ~ 2648 h): 18.45 % dose | Feces (% dose) ([6]; Subject 03, 0 ~ 2648 h): 38.93 % dose | Total recovery rate (% dose) ([6]; Subject 03, 0 ~ 2648 h): 50.92 % dose | Urine (% dose) ([6]; Subject 03, 0 ~ 2648 h): 11.99 % dose | Feces (% dose) ([6]; Subject 04, 0 ~ 2648 h): 56.80 % dose | Total recovery rate (% dose) ([6]; Subject 04, 0 ~ 2648 h): 69.09 % dose | Urine (% dose) ([6]; Subject 04, 0 ~ 2648 h): 12.29 % dose | Feces (% dose) ([6]; Subject 05, 0 ~ 2648 h): 59.44 % dose | Total recovery rate (% dose) ([6]; Subject 05, 0 ~ 2648 h): 71.86 % dose | Urine (% dose) ([6]; Subject 05, 0 ~ 2648 h): 12.42 % dose | Feces (% dose) ([6]; Subject 06, 0 ~ 2648 h): 42.69 % dose | Total recovery rate (% dose) ([6]; Subject 06, 0 ~ 2648 h): 53.08 % dose | Urine (% dose) ([6]; Subject 06, 0 ~ 2648 h): 10.39 % dose | Radioactive concentration in feces ([6]; after 404–432 h): 4876 DPM/ml | Radioactive concentration in urine ([6]; after 404–432 h): 279 DPM/ml
Compound: COc1cc2c(Oc3ccc4[nH]c(C)cc4c3F)ccnc2cc1OCC1(N)CC1 [anlotinib, 1-[[4-(4-fluoro-2-methyl-1H-indol-5-yloxy)-6-methoxyquinolin-7-yl]oxy]methyl) cyclopropanamine dihydrochloride]
Tumor response: partial response (PR) [1]: one | Tumor response: progressive disease (PD) [1]: one | IC50 [3]: 110 nM | Absorption [5]: absorbed quickly | Membrane permeability [5]: good membrane permeability

From article PMC7188728, “A phase I study investigation of metabolism, and disposition of [^14C]-anlotinib after an oral administration in patients with advanced refractory solid tumors” (Cancer Chemotherapy and Pharmacology, 2020)
